According to patent US20180235234A1, “COMPOSITIONS COMPRISING A BIOLOGICAL CONTROL AGENT AND AN INSECTICIDE” (priority 2012, published 2018):

Key:
Assay type in all cases: in vivo
Spodoptera frugiperda [1] = assay: Spodoptera frugiperda spray test, cotton leaves; conditions: mortality
Procedure: (§1) Spodoptera frugiperda—Spray Test
To produce a suitable preparation of active compound, 1 part by weight of active compound was mixed with the stated amount of solvent and was diluted with water, containing an emulsifier concentration of 1000 ppm, to the desired concentration. To produce a suitable preparation of a spore suspension the spores were diluted with emulsifier-containing water to the desired concentration. Further test concentrations were prepared by dilution with emulsifier-containing water. Ammonium salt and/or penetration enhancer in a dosage of 1000 ppm were added if necessary.
Cotton leaves (Gossypium hirsutum) were treated by being sprayed with the preparation of the active compound of the desired concentration and were infested with caterpillars of the fall army worm (Spodoptera frugiperda).
After the specified period of time % mortality was determined. 100% means all the caterpillars were killed, and 0% means none of the caterpillars were killed.

Myzus persicae = Myzus persicae spray test (MYZUPE), Chinese cabbage leaf disks; conditions: mortality
Procedure: (§2) For all examples the efficiencies of the compositions comprising at least one BCA and at least one specific insecticide has been determined by the “Colby-formula”. The expected efficacy of a given combination of two compounds is calculated as follows (see Colby, S. R., “Calculating Synergistic and antagonistic Responses of Herbicide Combinations”, Weeds 15, pp. 20-22, 1967): If • X is the efficacy expressed in % mortality of the untreated control for test compound A at a concentration of m ppm respectively m g/ha, • Y is the efficacy expressed in % mortality of the untreated control for test compound B at a concentration of n ppm respectively n g/ha, • E is the efficacy expressed in % mortality of the untreated control using the mixture of A and B at m and n ppm respectively m and n g /ha, then
(§3) If the observed insecticidal efficacy of the combination is higher than the one calculated as “E”, then the combination of the two compounds is more than additive, i.e., there is a synergistic effect.
Myzus persicae—Spray Test (MYZUPE)
(§4) To produce a suitable preparation of active compound, 1 part by weight of active compound is mixed with the stated amount of solvent and emulsifier, and the concentrate is diluted with emulsifier-containing water to the desired concentration. To produce a suitable preparation of a spore suspension the spores are diluted with emulsifier-containing water to the desired concentration.
Chinese cabbage (Brassica pekinensis) leaf—disks infected with all instars of the green peach aphid (Myzus persicae), are sprayed with a preparation of the active ingredient of the desired concentration.
After the specified period of time, mortality in % is determined. 100% means all aphids have been killed; 0% means none of the aphids have been killed. The mortality values determined thus are recalculated using the Colby-formula (see above).

Phaedon cochleariae = Phaedon cochleariae spray test, Chinese cabbage leaf disks; conditions: 0.16 g ai/ha; mortality
Procedure: as §2, §3
Phaedon cochleariae—Spray Test […]
After the specified period of time, mortality in % is determined. […] The mortality values determined thus are recalculated using the Colby-formula (see above).

Spodoptera frugiperda [2] = assay: Spodoptera frugiperda spray test, maize leaf sections; conditions: mortality
Procedure: as §2, §3, §1
as §4, with “preparation of the active compound,” for “preparation of active compound,”
Maize (Zea mais) leaf sections are sprayed with a preparation of the active ingredient of the desired concentration. Once dry, the leaf sections are infested with fall armyworm larvae (Spodoptera frugiperda).
After the specified period of time, mortality in % is determined. 100% means all caterpillars have been killed and 0% means none of the caterpillars have been killed. The mortality values determined thus are recalculated using the Colby-formula (see above).

Aphis gossypii = Aphis gossypii spray test, cotton leaves; conditions: 2 ppm; mortality
Procedure: as §2, §3
Aphis gossypii—Spray Test […]
After the specified period of time, the mortality in % is determined. […] The mortality values determined thus are recalculated using the Colby-formula (see above).

Cc1c(COC(=O)[C@@H]2[C@H](/C=C(\Cl)C(F)(F)F)C2(C)C)cccc1-c1ccccc1 (racemic) [Bifenthrin]
Efficacy in % after 3 days (Spodoptera frugiperda [1]; 0.5 ppm): 0%
Efficacy in % after 6 days (Spodoptera frugiperda [1]; 0.5 ppm): 20%
Efficacy in % after 2 days (Spodoptera frugiperda [1]; 2 ppm): 20%
Efficacy in % after 2 days (Spodoptera frugiperda [1]; 8 ppm): 60%

CC1(C)[C@H](C(=O)O[C@H](C#N)c2cccc(Oc3ccccc3)c2)[C@@H]1C=C(Br)Br [Deltamethrin (I116), Deltamethrin]
Efficacy in % after 6 d (Myzus persicae; 0.032 g/ha): 0%

CC1(C)C(C=C(Cl)Cl)C1C(=O)OC(C#N)c1ccc(F)c(Oc2ccccc2)c1 (stereo not drawn) [ß-Cyfluthrin (I106), beta-Cyfluthrin]
Efficacy in % after 1 d (Myzus persicae; 0.16 g/ha): 0%
Efficacy in % after 6 d (Myzus persicae; 0.16 g/ha): 0%
Efficacy in % after 6 d (Myzus persicae; 2 g/ha): 0%
Efficacy in % after 6 d (Phaedon cochleariae): 0%
Efficacy in % after 6 d (Spodoptera frugiperda [2]; 0.16 g ai/ha): 0%
Efficacy in % after 6 d (Spodoptera frugiperda [2]; 0.4 g ai/ha): 33%

Cc1c(F)c(F)c(COC(=O)[C@@H]2[C@H](/C=C(\Cl)C(F)(F)F)C2(C)C)c(F)c1F (racemic) [Tefluthrin (I134), Tefluthrin]
Efficacy in % after 6 d (Myzus persicae; 2 g/ha): 0%
Efficacy in % after 6 d (Spodoptera frugiperda [2]; 0.4 g ai/ha): 17%
Efficacy in % after 6 d (Spodoptera frugiperda [2]; 4 g ai/ha): 50%
Efficacy in % after 2 d (Spodoptera frugiperda [2]; 10 g ai/ha): 0%
Efficacy in % after 1 d (Aphis gossypii): 15%
